We go through 1 compound from patent publication US20210022305A1, “A HUMULUS PLANT VARIANT AND EXTRACTS THEREOF” (BOMI LLC, priority 2018, published 2021).

The experiment has as its system liver cancer tumors (Standard Risk Hepatoblastoma). In words: Liver cancer study: cisplatin alone vs cisplatin + ImmunAG, tumor size. The class given is in vivo, human. An excerpt:
Patient Characteristics. There were 99 men and 18 women in the trial. The average age was 53, with a minimum age of 31 and a maximum age of 78. Eighty-six patients (73.5%) were preoperative TACE negative, and 31 patients (26.49%) were preoperative TACE positive. Seventeen patient (14.52%) were HBsAg negative and 100 patients (85.47%) were HBsAg positive. One hundred six patients […] were Anti-HCV negative and 11 patients […] were Anti-HCV positive. Eighteen patients […] were negative for cirrhosis and 99 patients (83.9%) were positive for cirrhosis. Preoperative alpha-fetoprotein (μg/L) was an average of 18.3 with a minimum value of 1.7 and a maximum value of 1089. Cumulative tumor size was an average of 4.89 cm with a minimum of 2.37 cm and a maximum value of 19.62 cm. Fifty-three people had 2 tumors in the liver, 52 people has 3 liver tumors and 12 people had 4 tumors. The average tumor number is […]. There were 7 cases (5.98%) of high Necrosis differentiation, 106 cases of medium (90.59%) Necrosis differentiation, and 4 cases (3.41%) of low Necrosis differentiation. […] The rest, 99 patient (84.6%) had liver capsule invasion in some form.
All these patients were suffering from Standard Risk (SR) Hepatoblastoma- and not Hepatocellular carcinoma or Cholangiocarcinoma. Of these patients, 57 of the men, and 7 of the women, had surgical resectioning of some degree. However at this point of treatment resectioning was not considered a viable option.
There were 54 men and 10 women in the Cisplatin alone treatment group. There were 45 men and 8 women in the Cisplatin+ImmunAG group. The Cisplatin alone treatment group received a dosage of 50-70 mg/m^2, every four weeks for a duration of the study. The Cisplatin+ImmunAG group received the same dosage of Cisplatin as noted above in combination with a 80 mg-600 mg/day dose of ImmunAG (composition comprising CBD, humulene, and β-caryophyllene). The exact dose of ImmunAG was determined based on patient's sex and height, and was administered in three doses over the course of the day.

In the case of `N.N.[Cl][Pt][Cl]` [Cisplatin], where the note is “after treatment, cisplatin 50-70 mg/m^2 every four weeks, ImmunAG 80 mg-600 mg/day”, the “Final tumor sizes, Mean” value turned out to be 5.659. Also, under “before treatment, liver tumors of patients”, the “Initial tumor sizes, Mean” value was found to be 4.851. The “Change of mean tumors” value (final vs initial) stood at 17%. Also, the “Mean tumors relative to initial (from 1)” value (final vs initial = 1) is 1.17.
